The structures appear in SMILES notation.

The test has as its system bicistronic HCV replicon (replicon RNA, GenBank Accession No. AJ242654). Put plainly: HCV Replicon Assay. It is filed as cell-based. To be noted: Hepatitis C virus, 72 h, read-out: Replicon IC50.
One may read the IC50 as the concentration that inhibits the measured activity by half. Turning to `CCc1cc2c(cc1F)c(C#N)c(-c1ccc(S(=O)(=O)N[C@@H](C)C(F)(F)F)cn1)n2-c1ncc(F)cn1` [compound 946, 6-[3-cyano-6-ethyl-5-fluoro-1-(5-fluoropyrimidin-2-yl)-1H-indol-2-yl]-N-[(2S)-1,1,1-trifluoropropan-2-yl]pyridine-3-sulfonamide], the IC50 is less than 500 nM.

As to `C[C@H](NS(=O)(=O)c1ccc(-c2c(C#N)c3ccc(Cl)cc3n2C2CCCC2)nc1)C1CC1` [compound 155, 6-(6-chloro-3-cyano-1-cyclopentyl-1H-indol-2-yl)-N-[(1S)-1-cyclopropylethyl]pyridine-3-sulfonamide], the IC50 was less than 500 nM.

Turning to `Cc1cc2c(cc1F)c(C#N)c(-c1ccc(S(=O)(=O)N[C@@H](C)C(F)(F)F)cn1)n2-c1ncc(F)cn1` [compound 924, 6-[3-cyano-5-fluoro-1-(5-fluoropyrimidin-2-yl)-6-methyl-1H-indol-2-yl]-N-[(2S)-1,1,1-trifluoropropan-2-yl]pyridine-3-sulfonamide], the IC50 was less than 500 nM.

As to `C[C@H](NS(=O)(=O)c1ccc(-c2c(C#N)c3c(F)cc(OC(F)F)cc3n2CC2CC2)nc1)C(F)(F)F` [compound 773, 6-[3-cyano-1-(cyclopropylmethyl)-6-(difluoromethoxy)-4-fluoro-1H-indol-2-yl]-N-[(2S)-1,1,1-trifluoropropan-2-yl]pyridine-3-sulfonamide], the IC50 was 500 to 2000 nM.

In the case of `Cc1cc2c(cc1F)c(C#N)c(-c1ccc(S(=O)(=O)N[C@H](C)C(F)(F)F)cn1)n2C1CCCC1` [compound 409, 6-(3-cyano-1-cyclopentyl-5-fluoro-6-methyl-1H-indol-2-yl)-N-[(2R)-1,1,1-trifluoropropan-2-yl]pyridine-3-sulfonamide], the IC50 was less than 500 nM.

In the case of `N#Cc1c(-c2ccc(S(=O)(=O)NC(CF)CF)cn2)n(C2CCCC2)c2ccc(Cl)cc12` [compound 72, 6-(5-chloro-3-cyano-1-cyclopentyl-1H-indol-2-yl)-N-(1,3-difluoropropan-2-yl)pyridine-3-sulfonamide], the IC50 was less than 500 nM.

As to `Cc1cc(NS(=O)(=O)C(C)(C)C)ncc1-c1c(C(=O)O)c2cc(F)c(OC(F)F)cc2n1[C@H](C)C1CC1` [compound 1086, 2-{6-[(tert-butylsulfonyl)amino]-4-methylpyridin-3-yl}-1-[(1R)-1-cyclopropylethyl]-6-(difluoromethoxy)-5-fluoro-1H-indole-3-carboxylic acid], the IC50 is less than 500 nM.

In the case of `[2H]C([2H])([2H])c1cc2c(cc1F)c(C#N)c(-c1ccc(S(=O)(=O)N[C@@]([2H])(C)C(F)(F)F)cn1)n2-c1ncccn1` [compound 1107, 6-[3-cyano-5-fluoro-6-(1,1,1-trideuterium)methyl-1-(pyrimidin-2-yl)-1H-indol-2-yl]-N-[(2S)-1,1,1-trifluoro(2-deuterium)propan-2-yl]pyridine-3-sulfonamide], the IC50 is less than 500 nM.

Consider `C[C@H](NS(=O)(=O)c1ccc(-c2c(C#N)c3cc(F)c(OC(F)F)cc3n2-c2ncccn2)nc1)C(F)(F)F` [compound 682, 6-[3-cyano-6-(difluoromethoxy)-5-fluoro-1-(pyrimidin-2-yl)-1H-indol-2-yl]-N-[(2S)-1,1,1-trifluoropropan-2-yl]pyridine-3-sulfonamide], for which the IC50 is less than 500 nM.

In the case of `Cc1ccc2c(c1)c(C#N)c(-c1ccc(S(=O)(=O)N[C@H](C)C(F)(F)F)cn1)n2C1CCCC1` [compound 486, 6-(3-cyano-1-cyclopentyl-5-methyl-1H-indol-2-yl)-N-[(2R)-1,1,1-trifluoropropan-2-yl]pyridine-3-sulfonamide], the IC50 was less than 500 nM.

`C[C@H](NS(=O)(=O)c1ccc(-c2c(C#N)c3ccc(CC(F)F)cc3n2CC2CC2)nc1)C1CC1` [compound 617, 6-[3-cyano-1-(cyclopropylmethyl)-6-(2,2-difluoroethyl)-1H-indol-2-yl]-N-[(1S)-1-cyclopropylethyl]pyridine-3-sulfonamide]: the IC50 was less than 500 nM.

For `N#Cc1c(-c2ccc(S(=O)(=O)NC3(C(F)(F)F)CC3)cn2)n(-c2ccccn2)c2cc(OC(F)F)ccc12` [compound 623, 6-[3-cyano-6-(difluoromethoxy)-1-(pyridin-2-yl)-1H-indol-2-yl]-N-[1-(trifluoromethyl)cyclopropyl]pyridine-3-sulfonamide], the IC50 is 500 to 2000 nM.

In the case of `NC(=O)c1c(-c2ccc(S(=O)(=O)NC(CF)CF)cn2)n(C2CCC2)c2cc(C3CC3)ccc12` [compound 582, 1-cyclobutyl-6-cyclopropyl-2-{5-[(1,3-difluoropropan-2-yl)sulfamoyl]pyridin-2-yl}-1H-indole-3-carboxamide], the IC50 is less than 500 nM.

In the case of `CCc1cc2c(cc1F)c(C(N)=O)c(-c1ccc(S(=O)(=O)N[C@@H](C)C(F)(F)F)cn1)n2-c1cccc(C(F)(F)F)c1` [compound 1026, 6-ethyl-5-fluoro-1-[3-(trifluoromethyl)phenyl]-2-(5-{[(2S)-1,1,1-trifluoropropan-2-yl]sulfamoyl}pyridin-2-yl)-1H-indole-3-carboxamide], the IC50 was 500 to 2000 nM.

Consider `C=CCc1cc2c(cc1F)c(Cl)c(-c1ccc(S(=O)(=O)N[C@@H](C)C(F)(F)F)cn1)n2-c1ncccn1` [compound 968, 6-[3-chloro-5-fluoro-6-(prop-2-en-1-yl)-1-(pyrimidin-2-yl)-1H-indol-2-yl]-N-[(2S)-1,1,1-trifluoropropan-2-yl]pyridine-3-sulfonamide], for which the IC50 is 500 to 2000 nM.

For `CCc1cc2c(cc1F)c(C#N)c(-c1ccc(S(=O)(=O)N[C@@H](C)C(F)(F)F)cn1)n2-c1ccccn1` [compound 778, 6-[3-cyano-6-ethyl-5-fluoro-1-(pyridin-2-yl)-1H-indol-2-yl]-N-[(2S)-1,1,1-trifluoropropan-2-yl]pyridine-3-sulfonamide], the IC50 is less than 500 nM.

Regarding `COC(=O)c1cnc(-n2c(-c3ccc(S(=O)(=O)N[C@@H](C)C(F)(F)F)cn3)c(C#N)c3cc(F)c(C)cc32)s1` [compound 985, methyl 2-[3-cyano-5-fluoro-6-methyl-2-(5-{[(2S)-1,1,1-trifluoropropan-2-yl]sulfamoyl}pyridin-2-yl)-1H-indol-1-yl]-1,3-thiazole-5-carboxylate], the IC50 was less than 500 nM.

Turning to `CCc1cc2c(cc1F)c(C#N)c(-c1ccc(NS(=O)(=O)C(C)(C)C)nc1)n2[C@@H](C)C1CC1` [compound 1082, N-(5-{3-cyano-1-[(1S)-1-cyclopropylethyl]-6-ethyl-5-fluoro-1H-indol-2-yl}pyridin-2-yl)-2-methylpropane-2-sulfonamide], the IC50 is less than 500 nM.

For the compound `Cc1cc2c(cc1F)c(C#N)c(-c1ccc(S(=O)(=O)N[C@@H](C)C(F)(F)F)cn1)n2C1CCOCC1` [compound 751, 6-[3-cyano-5-fluoro-6-methyl-1-(tetrahydro-2H-pyran-4-yl)-1H-indol-2-yl]-N-[(2S)-1,1,1-trifluoropropan-2-yl]pyridine-3-sulfonamide], the IC50 was less than 500 nM.

As to `CSc1ccc2c(C#N)c(-c3ccc(S(=O)(=O)NC(CF)CF)cn3)n(C3CCC3)c2c1` [compound 161, 6-[3-cyano-1-cyclobutyl-6-(methylsulfanyl)-1H-indol-2-yl]-N-(1,3-difluoropropan-2-yl)pyridine-3-sulfonamide], the IC50 is less than 500 nM.

As for `Cc1ccc2c(C#N)c(-c3ccc(S(=O)(=O)N[C@H](C)C(F)(F)F)cn3)n(-c3ccccn3)c2c1` [compound 671, 6-[3-cyano-6-methyl-1-(pyridin-2-yl)-1H-indol-2-yl]-N-[(2R)-1,1,1-trifluoropropan-2-yl]pyridine-3-sulfonamide], the IC50 was less than 500 nM.

For `C[C@H](NS(=O)(=O)c1ccc(-c2c(C#N)c3cc(F)c(CCO)cc3n2-c2ncccn2)nc1)C(F)(F)F` [compound 970, 6-[3-cyano-5-fluoro-6-(2-hydroxyethyl)-1-(pyrimidin-2-yl)-1H-indol-2-yl]-N-[(2S)-1,1,1-trifluoropropan-2-yl]pyridine-3-sulfonamide], the IC50 was less than 500 nM.

For the compound `COC(=O)c1c(-c2ccc(S(=O)(=O)NC(C)(C)C)cn2)n(C2CCCC2)c2cc(C)c(F)cc12` [compound 755, methyl 2-[5-(tert-butylsulfamoyl)pyridin-2-yl]-1-cyclopentyl-5-fluoro-6-methyl-1H-indole-3-carboxylate], the IC50 was less than 500 nM.

For the compound `N#Cc1c(-c2ccc(S(=O)(=O)NC(CF)CF)cn2)n(C2CCC2)c2cc(C=C(F)F)ccc12` [compound 103, 6-[3-cyano-1-cyclobutyl-6-(2,2-difluoroethenyl)-1H-indol-2-yl]-N-(1,3-difluoropropan-2-yl)pyridine-3-sulfonamide], the IC50 was less than 500 nM.

Take `CC1(NS(=O)(=O)c2ccc(-c3c(C#N)c4cc(CC(F)F)ccc4n3C3CCC3)nc2)CC1` [compound 696, 6-[3-cyano-1-cyclobutyl-5-(2,2-difluoroethyl)-1H-indol-2-yl]-N-(1-methylcyclopropyl)pyridine-3-sulfonamide]: the IC50 was less than 500 nM.

Turning to `N#Cc1c(-c2ncc(S(=O)(=O)NC(CF)CF)cn2)n(C2CCC2)c2ccc(C(F)F)cc12` [compound 379, 2-[3-cyano-1-cyclobutyl-5-(difluoromethyl)-1H-indol-2-yl]-N-(1,3-difluoropropan-2-yl)pyrimidine-5-sulfonamide], the IC50 is less than 500 nM.

With `CC(C)(C)S(=O)(=O)Nc1ccc(-c2c(C(=O)O)c3cc(F)c(OC(F)F)cc3n2C2CCCCC2)cn1` [compound 1064, 2-{6-[(tert-butylsulfonyl)amino]pyridin-3-yl}-1-cyclohexyl-6-(difluoromethoxy)-5-fluoro-1H-indole-3-carboxylic acid], the half-maximal inhibitory concentration (IC50) was less than 500 nM.

`Cc1ccnc(-n2c(-c3ccc(S(=O)(=O)N[C@@H](C)C(F)(F)F)cn3)c(C#N)c3cc(F)c(C)cc32)n1` [compound 873, 6-[3-cyano-5-fluoro-6-methyl-1-(4-methylpyrimidin-2-yl)-1H-indol-2-yl]-N-[(2S)-1,1,1-trifluoropropan-2-yl]pyridine-3-sulfonamide]: the IC50 was less than 500 nM.

For the compound `Cc1cc2c(cc1F)cc(-c1ccc(S(=O)(=O)N[C@@H](C)C(F)(F)F)cn1)n2-c1ccsc1` [compound 987, 6-[5-fluoro-6-methyl-1-(thiophen-3-yl)-1H-indol-2-yl]-N-[(2S)-1,1,1-trifluoropropan-2-yl]pyridine-3-sulfonamide], the IC50 was less than 500 nM.

Source of the values: patent publication US8735414B2 (priority 2009, dated 2014).
